Counter-ions that a name gives are not always drawn.
Test system: C57BL/6 mice
Assay: Marble burying test (MBT) in mice
Assay type: in vivo
Details: SC, 30 minutes prior, 30-minute period, vs. vehicle
Procedure: Animals. Adult male C57BL/6 mice, aged 8-10 weeks (body weight 20-25 g), were used in these experiments. Animals were housed under controlled temperatures and 12-hour light/dark cycles (lights on between 07:00-19:00 h), with ad libitum food and water. All efforts were made to minimize suffering.
Drugs and Drug Administration. Compound 4 was prepared as described above. Desipramine HCl was commercially obtained. The test compound, vehicle, and the positive control desipramine were administered subcutaneously (SC), with doses calculated based on the freebase. Normal saline was used as the vehicle. All compounds were administered at a volume of 10 ml/kg. All treatments were administered 30 minutes prior to the start of behavioral testing. Group size was n=9-10 per treatment.
Marble Burying Test (MBT). […] Mice were handled for about 2 min daily for the 3 days prior to the beginning of the experimental procedure. Twenty glass marbles (16 mm diameter) were placed at equal distances in a 5×4 pattern on a 5-cm layer of corn-cob bedding, with marbles at least 2 cm from the borders of the cage. The total number of marbles buried were counted in three 10-minute time bins (total 30 minutes). A marble was considered buried when it was >⅔ covered by bedding material.
Statistical Analysis. The data points shown are the mean ±standard error of the mean (SEM). Analysis was performed using GraphPad Prism 6. […]

SMILES: CCN(C)CCc1c[nH]c2ccc(F)cc12 [Compound 4, N-ethyl-2-(5-fluoro-1H-indol-3-yl)-N-methylethan-1-amine hydrochloride]
- number of marbles buried: dose-dependent reduction

— US20240317683A1, “METHODS OF TREATING MOOD DISORDERS” (priority 2020, published 2024)
